PubChem BioAssay AID2060610 (Molecular Pharmacology Branch, DTP, NCI, 2025)

System: 616215-338-R-J1-PDC complex spheroids, viability % test/control
Assay: Anticancer human tumor 616215-338-R-J1-PDC patient-derived colon adenocarcinoma cell line growth inhibition [CLK]
Settings: for IC50: curve of first compound; for viability, T/C: stronger effect = lower value
Outline: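 Multi-cell-type spheroids combined patient-derived tumor cells with HUVEC endothelial cells and human mesenchymal stem cells. Paired agents were dosed in half-log steps down from about clinical Cmax, or from 10 microM where Cmax was unknown.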
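Also: spheroids exposed to agents for 7 days.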
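For viability, T/C in this document: 100% = DMSO vehicle wells.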

For `CC(Nc1ccc2c(c1)OCCn1cc(N3C(=O)OCC3C(F)F)nc1-2)C(N)=O` (configuration not stated) + CN1CCN(c2cc(C(=O)Nc3cc4cc(-c5cnn(C)c5)ccc4cn3)ccn2)CC1, the IC50 (second compound 0.0316 µM) was > 10000 nM, the IC50 (second compound 0.1 µM) was 1980 nM and the IC50 (second compound 0.316 µM) was < 31.6 nM. For the same molecule, the IC50 (second compound 1 µM) was < 31.6 nM, the IC50 (second compound 3.16 µM) was < 31.6 nM and the IC50 (second compound 10 µM) was < 31.6 nM. It also gave a viability, T/C (second compound 0.0316 µM, first compound 0.0316 µM) of 94.6%, a viability, T/C (second compound 0.0316 µM, first compound 0.1 µM) of 108% and a viability, T/C (second compound 0.0316 µM, first compound 0.316 µM) of 101%. The viability, T/C (second compound 0.0316 µM, first compound 1 µM) was 92%, the viability, T/C (second compound 0.0316 µM, first compound 3.16 µM) was 78.3% and the viability, T/C (second compound 0.0316 µM, first compound 10 µM) was 52.4%. It also gave a viability, T/C (second compound 0.1 µM, first compound 0.0316 µM) of 105%, a viability, T/C (second compound 0.1 µM, first compound 0.1 µM) of 97.9% and a viability, T/C (second compound 0.1 µM, first compound 0.316 µM) of 75%. For the same molecule, the viability, T/C (second compound 0.1 µM, first compound 1 µM) was 59.2%, the viability, T/C (second compound 0.1 µM, first compound 3.16 µM) was 44.7% and the viability, T/C (second compound 0.1 µM, first compound 10 µM) was 38%. It also gave a viability, T/C (second compound 0.316 µM, first compound 0.0316 µM) of 26.2%, a viability, T/C (second compound 0.316 µM, first compound 0.1 µM) of 22% and a viability, T/C (second compound 0.316 µM, first compound 0.316 µM) of 17.6%. The viability, T/C (second compound 0.316 µM, first compound 1 µM) was 13.8%, the viability, T/C (second compound 0.316 µM, first compound 3.16 µM) was 12.9% and the viability, T/C (second compound 0.316 µM, first compound 10 µM) was 10.4%. The viability, T/C (second compound 1 µM, first compound 0.0316 µM) was 0.14%, the viability, T/C (second compound 1 µM, first compound 0.1 µM) was 0.18% and the viability, T/C (second compound 1 µM, first compound 0.316 µM) was 0.22%. For the same molecule, the viability, T/C (second compound 1 µM, first compound 1 µM) was 0.1%, the viability, T/C (second compound 1 µM, first compound 3.16 µM) was 0.88% and the viability, T/C (second compound 1 µM, first compound 10 µM) was 0.09%. For the same molecule, the viability, T/C (second compound 3.16 µM, first compound 0.0316 µM) was 0.11%, the viability, T/C (second compound 3.16 µM, first compound 0.1 µM) was 0.15% and the viability, T/C (second compound 3.16 µM, first compound 0.316 µM) was 1.65%. It also gave a viability, T/C (second compound 3.16 µM, first compound 1 µM) of 1.21%, a viability, T/C (second compound 3.16 µM, first compound 3.16 µM) of 1.32% and a viability, T/C (second compound 3.16 µM, first compound 10 µM) of 1.75%. For the same molecule, the viability, T/C (second compound 10 µM, first compound 0.0316 µM) was 0.13%, the viability, T/C (second compound 10 µM, first compound 0.1 µM) was 0.18% and the viability, T/C (second compound 10 µM, first compound 0.316 µM) was 1.39%. It also gave a viability, T/C (second compound 10 µM, first compound 1 µM) of 0.23%, a viability, T/C (second compound 10 µM, first compound 3.16 µM) of 0.22% and a viability, T/C (second compound 10 µM, first compound 10 µM) of 0.23%.
